Experimental data taken from the NIST ThermoML archive (doi:10.1021/je900732r).

Assay: mn = molality of the nth substance listed, in mol/kg
Conditions: 101 kPa, Liquid

C[S+](C)[O-] [dimethyl sulfoxide] + [Co+2].[O-][Cl+3]([O-])([O-])[O-].[O-][Cl+3]([O-])([O-])[O-]
m2 = 0
Conditions | mass density [kg/m3]
293.15 K | 1100.22
298.15 K | 1095.19
303.15 K | 1090.18
313.15 K | 1080.12
323.15 K | 1070.08
333.15 K | 1060.03

CO [methanol] + [Ni+2].[O-][Cl+3]([O-])([O-])[O-].[O-][Cl+3]([O-])([O-])[O-]
m2 = 0
Conditions | mass density [kg/m3]
283.15 K | 800.541
288.15 K | 795.866
293.15 K | 791.169
298.15 K | 786.46
303.15 K | 781.733
308.15 K | 776.979
313.15 K | 772.189

[Mn+2].[O-][Cl+3]([O-])([O-])[O-].[O-][Cl+3]([O-])([O-])[O-] [manganese (II) perchlorate] + C[S+](C)[O-]
mass density [kg/m3]
Conditions | 293.15 K | 298.15 K | 303.15 K | 313.15 K | 323.15 K | 333.15 K
m1 = 0.01626 | 1103.52 | 1098.5 | 1093.49 | 1083.46 | 1073.44 | 1063.42
m1 = 0.0211 | 1104.5 | 1099.48 | 1094.47 | 1084.45 | 1074.44 | 1064.43
m1 = 0.02843 | 1105.99 | 1100.98 | 1095.97 | 1085.96 | 1075.96 | 1065.96
m1 = 0.037 | 1107.74 | 1102.73 | 1097.73 | 1087.73 | 1077.74 | 1067.75
m1 = 0.04758 | 1109.9 | 1104.9 | 1099.91 | 1089.92 | 1079.94 | 1069.97
m1 = 0.05763 | 1111.96 | 1106.97 | 1101.98 | 1092.01 | 1082.05 | 1072.09
m1 = 0.07358 | 1115.24 | 1110.26 | 1105.28 | 1095.33 | 1085.39 | 1075.45
m1 = 0.09456 | 1119.59 | 1114.62 | 1109.65 | 1099.73 | 1089.82 | 1079.91
m1 = 0.1139 | 1123.62 | 1118.65 | 1113.7 | 1103.8 | 1093.92 | 1084.04
m1 = 0.1337 | 1127.77 | 1122.82 | 1117.87 | 1108 | 1098.14 | 1088.29
m1 = 0.1569 | 1132.59 | 1127.65 | 1122.73 | 1112.88 | 1103.06 | 1093.24
m1 = 0.1754 | 1136.6 | 1131.67 | 1126.75 | 1116.94 | 1107.13 | 1097.34
